These results are taken from patent US7494997B2, “Amide derivative” (Nippon Shinyaku Co., Ltd., priority 2002, dated 2009).

The target in one data set is T1, E255K mutant BCR-ABL (Homo sapiens, UniProt P00519, E255K).
T1 construct: expressed in transfected cells; host or cells: 293T cells (ATCC), Lipofectamine transfection; the other entry of the earlier key: BCR (P11274, Breakpoint cluster region protein)
Nature of the data set: Self-phosphorylation inhibitory effect on mutant (E255K) BCR-ABL in transfected 293T cells (Western blot, PY99). The format is cell-based. The settings on record: 2 hours. The method, then: The cells were seeded in an amount of 5 ml in a Poly-L-Lysin coated 6 cm dish so as to give 1.2×10^6 cells/well. […] Using a Lipofectamine reagent (manufactured by Invitrogen), 2 μg of E255K mutant bcr-abl gene expression vector was transfected into the cell. […] The dish was incubated in a CO2 incubator for 2 hours. After treatment with trypsin, the cells were collected into a 15 ml centrifuge tube. The tube was centrifuged at 1000 rpm at room temperature for one minute. After removal of the medium, 50 μl of a cell lysis solution was added. The cells were subjected to cytolysis with a mixer. The tube was left to stand at 4° C. for 15 minutes and transferred to 1.5 ml tube. The tube was centrifuged at 12,000 rpm at 4° C. for 15 minutes. The cell lysate was collected into another 1.5 ml tube. The concentration of protein was measured according to BCA method. The samples of cell lysate containing […] of protein was analyzed by SDS-PAGE polyacrylamide. After electrophoresis, the protein was transferred onto a nylon filter (Hybond-P) with wet method at 4° C. overnight. The nylon filter was reacted in 10 ml of PBS/0.1% Tween-20 containing 0.2 μg/ml anti-phosphorylation tyrosin kinase antibody (PY99) (manufactured by Toyobo) at room temperature for one hour. The nylon filter was washed with PBS three times and then reacted 10 ml of PBS/0.1% Tween-20 containing 0.4 μg/ml Anti-mouse IgG AP-conjugated (manufactured by Cell Signaling) at room temperature for one hour. After the nylon filter was washed with PBS four times, self-phosphorylation of p210 BCR-ABL was detected with alkaline phosphatase color developing reagent.
The results are shown as follows: +++: almost perfectly inhibition of phosphorylation; ++: around half of inhibition; +: week inhibition; and −: no inhibition.
In general terms: A western blot detects proteins with antibodies after separation by electrophoresis.

The next data set relates to K562 cells. As to the kind of experiment: Cell growth inhibitory effect, K562 cells (WST-8, 72 hours). The settings on record: for IC50: Homo sapiens, K562, 72 h, read-out: K562 cells (IC50 value: μM); for Ratio (U937 cells/K562 cells): ratio of IC50 values U937 cells/K562 cells. On the technique in general: Tetrazolium assays rely on reduction of a dye to a coloured formazan, in cell work by metabolically active cells.

Another data set concerns U937 cells. Nature of the data set: Cell growth inhibitory effect, U937 cells (WST-8, 72 hours). The settings on record: Homo sapiens, U-937, 72 h, read-out: U937 cells (IC50 value: μM).

T1 sequence (P00519 28-1130 E255K limits assumed): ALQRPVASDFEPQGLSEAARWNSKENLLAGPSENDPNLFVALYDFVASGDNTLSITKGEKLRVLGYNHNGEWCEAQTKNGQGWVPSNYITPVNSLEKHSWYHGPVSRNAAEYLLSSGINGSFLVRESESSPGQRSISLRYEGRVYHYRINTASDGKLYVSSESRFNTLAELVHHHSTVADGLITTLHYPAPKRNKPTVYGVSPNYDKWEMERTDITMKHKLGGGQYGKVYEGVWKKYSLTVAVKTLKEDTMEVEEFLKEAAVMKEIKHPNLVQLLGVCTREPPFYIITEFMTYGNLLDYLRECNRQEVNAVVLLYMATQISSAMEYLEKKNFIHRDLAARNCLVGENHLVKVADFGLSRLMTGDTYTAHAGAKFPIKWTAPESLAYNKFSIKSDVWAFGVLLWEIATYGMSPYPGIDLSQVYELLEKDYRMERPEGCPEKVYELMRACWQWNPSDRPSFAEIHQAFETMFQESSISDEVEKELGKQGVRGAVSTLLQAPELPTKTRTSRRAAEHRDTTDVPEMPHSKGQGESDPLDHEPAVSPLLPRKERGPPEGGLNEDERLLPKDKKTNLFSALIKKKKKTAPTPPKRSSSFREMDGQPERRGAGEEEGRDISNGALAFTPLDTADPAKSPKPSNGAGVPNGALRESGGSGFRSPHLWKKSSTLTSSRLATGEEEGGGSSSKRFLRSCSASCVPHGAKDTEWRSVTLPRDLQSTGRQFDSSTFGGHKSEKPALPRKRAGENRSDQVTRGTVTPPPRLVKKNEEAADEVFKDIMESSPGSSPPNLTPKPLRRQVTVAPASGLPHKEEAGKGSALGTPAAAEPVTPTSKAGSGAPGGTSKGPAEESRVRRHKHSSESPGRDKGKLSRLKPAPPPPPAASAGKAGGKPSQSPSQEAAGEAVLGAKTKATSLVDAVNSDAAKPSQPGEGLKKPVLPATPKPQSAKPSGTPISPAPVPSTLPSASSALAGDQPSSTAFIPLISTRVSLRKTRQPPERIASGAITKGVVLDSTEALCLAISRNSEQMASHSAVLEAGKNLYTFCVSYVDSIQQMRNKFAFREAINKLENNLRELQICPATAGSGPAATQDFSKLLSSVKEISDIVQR

One may read the melting point as the temperature of the solid-liquid transition. As a reminder, the IC50 is the concentration at which inhibition is half-maximal. As for `Cc1ccc(NC(=O)c2ccc(CN3CCN(C)CC3)c(I)c2)cc1Nc1nccc(-c2cccnc2)n1` [Example 2, 3-iodo-4-(4-methylpiperazin-1-ylmethyl)-N-{4-methyl-3-[4-(3-pyridyl)pyrimidin-2-ylamino]phenyl}benzamide], the melting point is 199 to 200 °C (dec.). Further, the “Self-phosphorylation inhibitory effect on E255K mutant BCR-ABL” value (“Self-phosphorylation inhibitory effect” for short) on E255K mutant BCR-ABL (1 μM) is listed as “+”. Besides, the “Self-phosphorylation inhibitory effect” value on E255K mutant BCR-ABL (3 μM) is on record as “++”. For the same compound, the “Self-phosphorylation inhibitory effect” value on E255K mutant BCR-ABL (10 μM) is “+++”. Further, in the data set on K562 cells, the IC50 is 0.0023 µM and the “Ratio (U937 cells/K562 cells)” value is on record as 1452.2. Besides, the IC50 in the data set on U937 cells was 3.34 µM.
Take `Cc1ccc(NC(=O)c2ccc(CN3CCN(C)CC3)c(Cl)c2)cc1Nc1nccc(-c2cccnc2)n1` [Example 3, 3-chloro-4-(4-methylpiperazin-1-ylmethyl)-N-{4-methyl-3-[4-(3-pyridyl)pyrimidin-2-ylamino]phenyl}benzamide]: the melting point is 193 to 194 °C (dec.). Besides, the “Self-phosphorylation inhibitory effect” value on E255K mutant BCR-ABL (1 μM) is “−”. At E255K mutant BCR-ABL (3 μM), the “Self-phosphorylation inhibitory effect” value is “+”. For the same compound, on E255K mutant BCR-ABL (10 μM), the “Self-phosphorylation inhibitory effect” value is “+++”. Also, in the data set with K562 cells, the IC50 turned out to be 0.0046 µM and the “Ratio (U937 cells/K562 cells)” value is 1089.1. For the same compound, the IC50 in the data set with U937 cells was 5.01 µM.
Regarding `Cc1ccc(NC(=O)c2ccc(CN3CCN(C)CC3)c(Br)c2)cc1Nc1nccc(-c2cnccn2)n1` [Example 7, 3-bromo-4-(4-methylpiperazin-1-ylmethyl)-N-{4-methyl-3-[4-(2-pyrazinyl)pyrimidin-2-ylamino]phenyl}benzamide], the melting point was 213 to 214 °C (dec.). In addition, at E255K mutant BCR-ABL (1 μM), the “Self-phosphorylation inhibitory effect” value is listed as “−”. The “Self-phosphorylation inhibitory effect” value at E255K mutant BCR-ABL (3 μM) was “++”. Further, the “Self-phosphorylation inhibitory effect” value on E255K mutant BCR-ABL (10 μM) is “+++”. Further, in the data set with K562 cells, the IC50 turned out to be 0.0054 µM and the “Ratio (U937 cells/K562 cells)” value worked out at 1205.6. In the data set with U937 cells, the IC50 came to 6.51 µM.
Regarding `Cc1ccc(NC(=O)c2ccc(CN3CCN(C)CC3)c(Br)c2)cc1Nc1nccc(-c2cncc(Br)c2)n1` [Example 9, 3-bromo-4-(4-methylpiperazin-1-ylmethyl)-N-{3-[4-(5-bromopyridin-3-yl)pyrimidin-2-ylamino]-4-methylphenyl}benzamide], the melting point is 194 to 195 °C (dec.). Further, at E255K mutant BCR-ABL (1 μM), the “Self-phosphorylation inhibitory effect” value is reported as “+”. Besides, on E255K mutant BCR-ABL (3 μM), the “Self-phosphorylation inhibitory effect” value is given as “++”. The “Self-phosphorylation inhibitory effect” value on E255K mutant BCR-ABL (10 μM) is reported as “+++”. In addition, in the data set on K562 cells, the IC50 came out at 0.0017 µM and the “Ratio (U937 cells/K562 cells)” value came out at 1094.1. Further, the IC50 in the data set with U937 cells is 1.86 µM.
As to `COc1cc(C(=O)Nc2ccc(C)c(Nc3nccc(-c4cccnc4)n3)c2)ccc1CN1CCN(C)CC1` [Example 23, 3-methoxy-4-(4-methylpiperazin-1-ylmethyl)-N-{4-methyl-3-[4-(3-pyridyl)pyrimidin-2-ylamino]phenyl}benzamide], the melting point was 171 to 172 °C (dec.). Also, in the data set on K562 cells, the half-maximal inhibitory concentration (IC50) was determined as 0.0094 µM and the “Ratio (U937 cells/K562 cells)” value was >1063.8. In addition, in the data set on U937 cells, the IC50 is > 10 µM.
For the compound `Cc1ccc(NC(=O)c2cc(Br)c(CN3CCN(C)CC3)c(Br)c2)cc1Nc1nccc(-c2cccnc2)n1` [Example 24, 3,5-dibromo-4-(4-methylpiperazin-1-ylmethyl)-N-{4-methyl-3-[4-(3-pyridyl)pyrimidin-2-ylamino]phenyl}benzamide], the melting point fell in the range of 227 to 229 °C. In addition, in the data set with K562 cells, the half-maximal inhibitory concentration (IC50) came to 0.0015 µM and the “Ratio (U937 cells/K562 cells)” value is recorded as 4860.0. Also, the IC50 in the data set with U937 cells turned out to be 7.29 µM.
Consider `COc1cc(C(=O)Nc2ccc(C)c(Nc3nccc(-c4cccnc4)n3)c2)cc(OC)c1CN1CCN(C)CC1` [Example 25, 3,5-dimethoxy-4-(4-methylpiperazin-1-ylmethyl)-N-{4-methyl-3-[4-(3-pyridyl)pyrimidin-2-ylamino]phenyl}benzamide], for which the melting point is 201 to 214 °C (dec.). Besides, in the data set with K562 cells, the IC50 came out at 0.03 µM and the “Ratio (U937 cells/K562 cells)” value is listed as 566.7. The IC50 in the data set on U937 cells is 17 µM.
The compound `CCCN1CCN(Cc2ccc(C(=O)Nc3ccc(C)c(Nc4nccc(-c5cccnc5)n4)c3)cc2Br)CC1` [Example 28, 3-bromo-4-[4-(n-propyl)piperazin-1-ylmethyl]-N-{4-methyl-3-[4-(3-pyridyl)pyrimidin-2-ylamino]phenyl}benzamide] registered a melting point of 204 to 205 °C. For the same compound, in the data set on K562 cells, the IC50 was 0.00065 µM and the “Ratio (U937 cells/K562 cells)” value is 10723.1. Moreover, the concentration for half-maximal inhibition (IC50) in the data set with U937 cells stood at 6.97 µM.
The corresponding values for `Cc1ccc(NC(=O)c2ccc(CN(C)C)c(Br)c2)cc1Nc1nccc(-c2cccnc2)n1` [Example 29, 3-bromo-4-(N,N-dimethylaminomethyl)-N-{4-methyl-3-[4-(3-pyridyl)pyrimidin-2-ylamino]phenyl}benzamide] are 154 to 155 °C, 0.017 µM, >588.2 and > 10 µM.
With `CCN(CC)Cc1ccc(C(=O)Nc2ccc(C)c(Nc3nccc(-c4cccnc4)n3)c2)cc1Br` [Example 30, 3-bromo-4-(N,N-diethylaminomethyl)-N-{4-methyl-3-[4-(3-pyridyl)pyrimidin-2-ylamino]phenyl}benzamide], the melting point lay in the range of 172 to 173 °C. In addition, in the data set with K562 cells, the IC50 was determined as 0.022 µM and the “Ratio (U937 cells/K562 cells)” value is >454.5. Also, the half-inhibitory concentration (IC50) with U937 cells is > 10 µM.
As to `Cc1ccc(NC(=O)c2ccc(CN3CCCN(C)CC3)c(Br)c2)cc1Nc1nccc(-c2cccnc2)n1` [Example 35, 3-bromo-4-(4-methyl-hexahydro-1H-1,4-diazepin-1-ylmethyl)-N-{4-methyl-3-[4-(3-pyridyl)pyrimidin-2-ylamino]phenyl}benzamide], the melting point fell in the range of 156 to 157 °C. In addition, in the data set with K562 cells, the 50% inhibitory concentration (IC50) came to 0.0075 µM and the “Ratio (U937 cells/K562 cells)” value turned out to be 696.0. Also, the IC50 with U937 cells came out at 5.22 µM.
`COC(=O)c1cc(C(=O)Nc2ccc(C)c(Nc3nccc(-c4cccnc4)n3)c2)ccc1CN1CCN(C)CC1` [Example 39, 3-methoxycarbonyl-4-(4-methylpiperazin-1-ylmethyl)-N-{4-methyl-3-[4-(3-pyridyl)pyrimidin-2-ylamino]phenyl}benzamide]: the melting point is 159 to 161 °C (dec.). Moreover, in the data set with K562 cells, the IC50 was determined as 0.035 µM and the “Ratio (U937 cells/K562 cells)” value is listed as >285.7. Also, the concentration for half-maximal inhibition (IC50) in the data set with U937 cells is > 10 µM.
Regarding `Cc1ccc(NC(=O)c2ccc(CN3CCN(C)CC3)c(C#N)c2)cc1Nc1nccc(-c2cccnc2)n1` [Example 40, 3-cyano-4-(4-methylpiperazin-1-ylmethyl)-N-{4-methyl-3-[4-(3-pyridyl)pyrimidin-2-ylamino]phenyl}benzamide], the melting point is 191 to 193 °C (dec.). In addition, in the data set with K562 cells, the IC50 worked out at 0.0054 µM and the “Ratio (U937 cells/K562 cells)” value was 777.8. The IC50 in the data set with U937 cells amounted to 4.2 µM.
